The record followed here is US10689354B2, “Aminoazole derivative” (Teijin Pharma Limited, priority 2015, dated 2020).

Some results are limits rather than exact numbers.

One experiment concerns the target T1, human androgen receptor (Homo sapiens, UniProt P10275).
T1 construct: expressed in transfected cells; host or cells: HEK293
T1 sequence (P10275 1-920): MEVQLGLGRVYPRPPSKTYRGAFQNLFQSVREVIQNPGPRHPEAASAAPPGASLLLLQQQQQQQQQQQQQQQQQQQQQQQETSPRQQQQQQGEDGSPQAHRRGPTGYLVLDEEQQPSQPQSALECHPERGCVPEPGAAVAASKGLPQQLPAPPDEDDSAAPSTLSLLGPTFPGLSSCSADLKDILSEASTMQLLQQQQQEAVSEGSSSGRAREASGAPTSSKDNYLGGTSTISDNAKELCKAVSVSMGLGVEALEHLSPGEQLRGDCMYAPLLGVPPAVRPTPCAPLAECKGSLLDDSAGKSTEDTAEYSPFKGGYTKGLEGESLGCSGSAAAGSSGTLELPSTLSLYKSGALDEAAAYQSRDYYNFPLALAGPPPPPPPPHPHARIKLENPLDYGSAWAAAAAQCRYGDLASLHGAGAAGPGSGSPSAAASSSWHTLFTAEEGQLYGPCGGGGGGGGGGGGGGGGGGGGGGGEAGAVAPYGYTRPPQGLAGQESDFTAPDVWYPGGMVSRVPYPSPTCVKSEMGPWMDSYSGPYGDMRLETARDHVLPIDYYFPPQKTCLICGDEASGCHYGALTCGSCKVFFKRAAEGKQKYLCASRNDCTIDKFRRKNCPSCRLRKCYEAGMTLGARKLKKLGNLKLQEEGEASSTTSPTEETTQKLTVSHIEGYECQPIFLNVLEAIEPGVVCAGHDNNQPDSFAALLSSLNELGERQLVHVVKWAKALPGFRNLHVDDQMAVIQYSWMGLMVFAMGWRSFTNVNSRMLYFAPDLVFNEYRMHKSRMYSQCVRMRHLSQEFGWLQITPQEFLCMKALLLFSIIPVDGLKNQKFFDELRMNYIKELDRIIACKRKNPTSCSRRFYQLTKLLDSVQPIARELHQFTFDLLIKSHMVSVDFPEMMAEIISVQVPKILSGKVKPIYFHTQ
Description: Reporter assay of an androgen receptor responsive sequence (luciferase, transiently transfected HEK293 cells). Particulars: 24 hours incubation, relative to activity of 100 nM DHT, read-out: AR transcriptive activity (pEC50) (converted). Type of experiment: cell-based. The method, boiled down:
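HEK293 cells transiently transfected for 3 h with ARE-firefly luciferase, full-length human AR and TK-Renilla plasmids, then exposed to compound for 24 h at 37 °C in 5% charcoal-treated FBS/DMEM. Dual-Glo luminescence read; pEC50 from 4-parameter fit relative to 100 nM DHT.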
In general terms: A reporter such as luciferase makes a cellular process visible.

The target in experiment [1] is T2, androgen receptor (AR-LBD) (Rattus norvegicus, UniProt P15207).
T2 construct: 5 μL of 2×AR-LBD/Fluoromone AL Red Complex contained in the kit; purchased Invitrogen
T2 sequence (P15207 651-882 limits assumed): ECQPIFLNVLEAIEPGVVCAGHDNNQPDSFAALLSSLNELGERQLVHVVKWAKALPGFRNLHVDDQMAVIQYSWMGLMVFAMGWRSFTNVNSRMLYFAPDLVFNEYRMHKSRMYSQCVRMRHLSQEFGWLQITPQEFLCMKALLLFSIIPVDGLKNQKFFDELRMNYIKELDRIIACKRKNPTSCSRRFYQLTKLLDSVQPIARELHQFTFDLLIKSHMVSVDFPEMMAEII
Description: Evaluation of androgen receptor affinity (PolarScreen Androgen Receptor Competitor Assay Kit, Red; fluorescence polarization). Particulars: 22° C. for 5 hours, relative to binding rate of 1 μM DHT, read-out: AR affinity (pEC50) (converted). The method, boiled down:
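pEC50 values reflect tracer displacement from AR-LBD (Fluoromone AL Red complex) measured by fluorescence polarization after 5 h at 22° C, normalized to 1 μM DHT and fitted with a 4-parameter model.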
A general note: In fluorescence polarisation assays a small probe gives low polarisation when free and higher when bound to something large.

Consider `CS(=O)(=O)NC(=O)c1nc(N(Cc2ccc(Cl)cc2)c2ccc(C#N)cc2)sc1Cl` [Example 269, 5-chloro-2-[N-[(4-chlorophenyl)methyl]-4-cyano-anilino]-N-methylsulfonyl-thiazole-4-carboxamide], for which the EC50 at human androgen receptor was 20 nM; in experiment [1], 25.1 nM.
As for `Cc1sc(N(CCc2cccnc2)Cc2ccccc2)nc1C(=O)NS(C)(=O)=O` [Compound 147, 2-[benzyl-[2-(3-pyridyl)ethyl]amino]-5-methyl-N-methylsulfonyl-thiazole-4-carboxamide], the figures for the EC50 (on human androgen receptor; in experiment [1]) were more than 10000 nM and more than 2000 nM, respectively.
In the same order, the values of `Cc1sc(N(CCc2ccc(C#N)cc2)Cc2ccc(Cl)cc2)nc1C(=O)NS(=O)(=O)Cc1cccc(F)c1` [Compound 322, 2-[(4-chlorophenyl)methyl-[2-(4-cyanophenyl)ethyl]amino]-N-[(3-fluorophenyl)methylsulfonyl]-5-methyl-thiazole-4-carboxamide] are more than 10000 nM and 63.1 nM.
`CCc1oc(N(Cc2cccc(Cl)c2)c2ccc(C#N)cc2)nc1C(=O)NS(C)(=O)=O` [Compound 631, 2-[N-[(3-chlorophenyl)methyl]-4-cyano-anilino]-5-ethyl-N-methylsulfonyl-oxazole-4-carboxamide]: the EC50 was 794 nM on human androgen receptor and 39.8 nM in experiment [1].
The like results for `Cc1sc(N(Cc2ccc3c(c2)CCO3)c2ccc(C#N)cc2)nc1C(=O)NS(C)(=O)=O` [Compound 478, 2-[4-cyano-N-(2,3-dihydrobenzofuran-5-ylmethyl)anilino]-5-methyl-N-methylsulfonyl-thiazole-4-carboxamide] were, in that order, 25.1 nM and 63.1 nM.
In the same order, the values of `Cc1sc(N(Cc2ccc(F)cc2F)c2ccc(C#N)cc2)nc1C(=O)NS(C)(=O)=O` [Compound 104, 2-[4-cyano-N-[(2,4-difluorophenyl)methyl]anilino]-5-methyl-N-methylsulfonyl-thiazole-4-carboxamide] are 126 nM and 50.1 nM.
Regarding `Cc1sc(N(CCC2CCCCC2)Cc2ccc(OC(F)(F)F)cc2)nc1C(=O)NS(=O)(=O)C1CC1` [Compound 734, 2-[2-cyclohexylethyl-[[4-(trifluoromethoxy)phenyl]methyl]amino]-N-cyclopropylsulfonyl-5-methyl-thiazole-4-carboxamide], the values for the EC50 (at human androgen receptor; in experiment [1]) were more than 10000 nM and 1000 nM, respectively.
In the case of `Cc1sc(N(CCn2cc(C#N)cn2)Cc2ccc(Cl)cc2)nc1C(=O)NS(C)(=O)=O` [Compound 736, 2-[(4-chlorophenyl)methyl-[2-(4-cyanopyrazol-1-yl)ethyl]amino]-5-methyl-N-methylsulfonyl-thiazole-4-carboxamide], the EC50 on human androgen receptor is 501 nM; in experiment [1], 200 nM.
Regarding `COc1ccc(CN(c2ccc(C#N)cc2)c2nc(C(=O)NS(C)(=O)=O)c(Cl)s2)cc1` [Example 271, 5-chloro-2-[4-cyano-N-[(4-methoxyphenyl)methyl]anilino]-N-methylsulfonyl-thiazole-4-carboxamide], the EC50 is 50.1 nM on human androgen receptor and 79.4 nM in experiment [1].
For `CS(=O)(=O)NC(=O)c1nc(N(Cc2ccc(Br)cn2)c2ccc(C#N)cc2)sc1Br` [Compound 642, 5-bromo-2-[N-[(5-bromo-2-pyridyl)methyl]-4-cyano-anilino]-N-methylsulfonyl-thiazole-4-carboxamide], the results for the EC50 (on human androgen receptor; in experiment [1]) were 50.1 nM and 79.4 nM, respectively.
The like results for `Cc1sc(N(CCc2ccc(OC(F)F)cc2)Cc2ccc(F)cc2)nc1C(=O)NS(C)(=O)=O` [Compound 159, 2-[2-[4-(difluoromethoxy)phenyl]ethyl-[(4-fluorophenyl)methyl]amino]-5-methyl-N-methylsulfonyl-thiazole-4-carboxamide] were, in that order, 398 nM and 63.1 nM.
Regarding `Cc1sc(N(CCc2ccccc2Cl)c2ccc(C#N)cc2)nc1C(=O)NS(C)(=O)=O` [Compound 140, 2-[N-[2-(2-chlorophenyl)ethyl]-4-cyano-anilino]-5-methyl-N-methylsulfonyl-thiazole-4-carboxamide], the EC50 on human androgen receptor is 794 nM; in experiment [1] it was 100 nM.
The like results for `Cc1sc(N(Cc2ccccc2)c2ccc(OC(F)(F)F)cc2)nc1C(=O)NS(C)(=O)=O` [Compound 34, 2-[N-benzyl-4-(trifluoromethoxy)anilino]-5-methyl-N-methylsulfonyl-thiazole-4-carboxamide] were, in that order, 3160 nM and 63.1 nM.
In the same order, the values of `Cc1sc(N(Cc2ccccc2)c2ccc(OC(F)F)cc2)nc1C(=O)NS(C)(=O)=O` [Compound 91, 2-[N-benzyl-4-(difluoromethoxy)anilino]-5-methyl-N-methylsulfonyl-thiazole-4-carboxamide] are 1580 nM and 100 nM.
Regarding `Cc1sc(N(Cc2cnc(-c3ccccc3F)s2)c2ccc(C#N)cc2)nc1C(=O)NS(C)(=O)=O` [Compound 495, 2-[4-cyano-N-[[2-(2-fluorophenyl)thiazol-5-yl]methyl]anilino]-5-methyl-N-methylsulfonyl-thiazole-4-carboxamide], the values for the EC50 (on human androgen receptor; in experiment [1]) were more than 10000 nM and 39.8 nM, respectively.
For the compound `Cc1sc(N(CCc2ccsc2)Cc2ccccc2)nc1C(=O)NS(C)(=O)=O` [Example 313, 2-[benzyl-[2-(3-thienyl)ethyl]amino]-5-methyl-N-methylsulfonyl-thiazole-4-carboxamide], the values for the EC50 (on human androgen receptor; in experiment [1]) were 1000 nM and 158 nM, respectively.
For the compound `Cc1sc(N(Cc2ccc(C3CC3)nc2)c2ccc(C#N)cc2)nc1C(=O)NS(C)(=O)=O` [Compound 593, 2-[4-cyano-N-[(6-cyclopropyl-3-pyridyl)methyl]anilino]-5-methyl-N-methylsulfonyl-thiazole-4-carboxamide], the EC50 is 200 nM at human androgen receptor and 251 nM in experiment [1].
Turning to `Cc1sc(N(Cc2cc(F)cc(Cl)c2)c2ccc(C#N)cc2)nc1C(=O)NS(C)(=O)=O` [Compound 99, 2-[N-[(3-chloro-5-fluoro-phenyl)methyl]-4-cyano-anilino]-5-methyl-N-methylsulfonyl-thiazole-4-carboxamide], the EC50 is 126 nM at human androgen receptor and 63.1 nM in experiment [1].
Consider `Cc1sc(N(Cc2ccc(OC3CCCC3)cc2)c2ccc(C#N)cc2)nc1C(=O)NS(C)(=O)=O` [Compound 581, 2-[4-cyano-N-[[4-(cyclopentoxy)phenyl]methyl]anilino]-5-methyl-N-methylsulfonyl-thiazole-4-carboxamide], for which the EC50 at human androgen receptor is 501 nM; in experiment [1], 25.1 nM.
In the same order, the values of `Cc1oc(N(Cc2cccc(F)c2)c2ccc(C#N)cc2)nc1C(=O)NS(C)(=O)=O` [Compound 612, 2-[4-cyano-N-[(3-fluorophenyl)methyl]anilino]-5-methyl-N-methylsulfonyl-oxazole-4-carboxamide] are 3980 nM and 126 nM.
In the case of `CS(=O)(=O)NC(=O)c1nc(N(Cc2ccc(OC(F)(F)F)cc2)c2ccc(C#N)cc2)sc1Cl` [Example 274, 5-chloro-2-[4-cyano-N-[[4-(trifluoromethoxy)phenyl]methyl]anilino]-N-methylsulfonyl-thiazole-4-carboxamide], the EC50 on human androgen receptor was 79.4 nM; in experiment [1], 39.8 nM.
With `Cc1sc(N(CCc2ccc(F)cc2)Cc2ccccc2)nc1C(=O)NS(C)(=O)=O` [Compound 340, 2-[benzyl-[2-(4-fluorophenyl)ethyl]amino]-5-methyl-N-methylsulfonyl-thiazole-4-carboxamide], the EC50 was 251 nM at human androgen receptor and 100 nM in experiment [1].
Regarding `Cc1sc(N(Cc2ccc(OC(F)(F)F)cc2)c2ccc(C#N)cc2)nc1C(=O)NS(=O)(=O)CC1CCOC1` (stereo not shown) [Example 202, 2-[4-cyano-N-[[4-(trifluoromethoxy)phenyl]methyl]anilino]-5-methyl-N-(tetrahydrofuran-3-ylmethylsulfonyl)thiazole-4-carboxamide], the EC50 at human androgen receptor was 126 nM; in experiment [1], 31.6 nM.
